Data reported in US8901118B2, “Compounds and methods for kinase modulation, and indications therefor” (Plexxikon Inc., priority 2010, dated 2014).

Columns and labels:
[1] = molecular target: CYP2C9 (Homo sapiens, UniProt P11712); assay: CYP2C9 inhibition (fluorescent substrate MFC); assay type: in vitro ADME; settings: read-out: Cyp IC50 2C9
Procedure: CYP (Cytochrome P450) enzymes are the major drug metabolizing enzymes present in the liver. The inhibition of CYP enzyme activity (IC50) for each of CYP1A2, CYP2C19, CYP2C9, CYP2D6, CYP3A4(BFC) and CYP3A4(BQ) is determined for compounds, where inhibition of metabolism of a known substrate leads to a decrease in the fluorescence of the metabolized product. The fluorescence of the product is monitored as a function of compound concentration. Compounds are dissolved in DMSO to a concentration of 100 mM. These are diluted 1 μL into 82 μL of acetonitrile. An 11 μL aliquot of this solution is then added to 204 μL of cofactor mix (1.3% NADPH Regeneration system Solution A, 1.04% NADPH Regeneration system Solution B from BD Biosciences, 5% acetonitrile and 0.05% DMSO). These are then serially diluted 1:1 (160 μL to 160 μL co-factor mix) for a total of 10 points. A 10 μL aliquot of this final mixture is dispensed into 384 well assay plates and incubated for 10 minutes at 37° C. […] Assay plates are incubated at 37° C. (CYP1A2-15 min; CYP2C9-45 min; CYP2C19, 2D6 and 3A4-30 min) and read in a Tecan Safire 2 plate reader (CYP1A2, 2C19 and 3A4 409 ex/460 em; CYP2C9 and 2D6 409 ex/530 em). The signal versus compound concentration is used to determine the IC50. The enzymes and substrates for this assay are obtained from BD Biosciences.

[2] = molecular target: T1, BCR-NTRK2 BaF3 cells (Homo sapiens, UniProt Q16620); assay: BaF3 BCR-NTRK2 cell proliferation assay (ATPlite); assay type: cell-based; settings: read-out: Inhibition of Cell Proliferation IC50, BCR/BaF3 TrkB
T1 construct: fused on or other part: P11274 (Breakpoint cluster region protein)
T1 sequence (Q16620 538-807): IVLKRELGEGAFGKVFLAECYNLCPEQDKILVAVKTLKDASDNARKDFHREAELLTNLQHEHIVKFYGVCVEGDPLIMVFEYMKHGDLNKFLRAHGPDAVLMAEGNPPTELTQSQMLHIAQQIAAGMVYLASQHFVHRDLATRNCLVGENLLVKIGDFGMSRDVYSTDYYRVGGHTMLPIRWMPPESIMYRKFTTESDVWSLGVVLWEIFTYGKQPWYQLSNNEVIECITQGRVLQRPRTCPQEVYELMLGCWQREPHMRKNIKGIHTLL
Procedure: Compounds are assessed in a variety of cell based assays. For example BaF3 cells engineered with any of BCR-FMS, BCR-KIT, BCR-FLT3, BCR-NTRK1, BCR-NTRK2, and BCR-NTRK3, are used in cell proliferation assays to assess inhibitory activity of Fms, Kit, Flt-3, TrkA, TrkB, and TrkC, respectively. An MV-4-11 (leukemia) cell proliferation assay is used to assess inhibitory activity in Flt-3, and SKNSH (human neuroblastoma) cell proliferation assay is used to assess efficacy of Fms/Trk inhibitors. Additional cells may be assayed similarly to assess the efficacy of Fms/Trk inhibitors, such as MiaPaCa (human pancreatic cancer) and Capan-1 (human pancreatic carcinoma) cells. Reagent and assay conditions are as follows: • BaF3 cells: • Maintained in RPMI containing 10% FBS, 1% PenStrep, 1% NEAA, and 1% L-Glutamine, supplemented with 1 mg/mL G418 and 5% WEHI-CM (or recombinant murine IL-3). • Confluent cells are split 1:50 to 1:100 every 3-4 days. • MV-4-11 cells: • Maintained in Iscove's Modified Dulbecco's Medium containing 10% FBS. • Confluent cells are split 1:4 every 3-4 days. • SKNSH cells: RPMI containing 10% FBS. On day 1, cells are counted, then centrifuged in a conical tube for 5 minutes at 1000 rpm. The supernatant is removed and cells are re-suspended as follows: • BaF3: resuspend in growth media +1 mg/mL G418 (without WEHFIL-3) to 2×10^5 cells/mL. • MV-4-11: resuspend in growth media to 5×10^5 cells/mL. • SKNSH: resuspend in growth media to 2×10^4 cells/mL. The cells are plated (50 μL, 150 μL for SKNSH cells) in each well of a 96-well dish (Corning 3610) and incubated at 37° C. in 5% CO2 overnight, cells plated to a final concentration of cells as follows: • BaF3: 10,000 cells per well. • MV-4-11: 25,000 cells per well. • SKNSH: 3,000 cells per well. On day 2, compound at a maximum concentration of 5 mM is serially diluted 1:3 for a total of 8 point titration with DMSO as a control. A 1 μL aliquot of each dilution point is added to 249 μL growth media and 50 μL is added to a well containing cells, providing 10 μM compound for the maximum concentration point. The cells are incubated for 3 days at 37° C. in 5% CO2. For SKNSH cells, a 0.75 μL aliquot of appropriate dilution in DMSO is added to 150 μL of cells. On day 5, ATPlite 1 step Luminescence Assay System (Perkin Elmer #6016739) is brought to room temperature along with the cell cultures. ATPlite is added to each well as follows: • BaF3: 25 μL per well. • MV-4-11: 40 μL per well. • SKNSH: 20 μL per well. The cells are incubated at room temperature for 10 minutes, then luminescence is read on Safire reader. The measured luminescence correlates directly with cell number, such that the reading as a function of compound concentration is used to determine the IC50 value.
It is understood that the results of these assays may vary as assay conditions are varied. Inhibition levels determined under the conditions described herein represent a relative activity for the compounds tested under the specific conditions employed. The cell based assays are likely to show variability due to the complexity of the system and the sensitivity thereof to any changes in the assay conditions. […] Results for compounds that are tested and show substantially no inhibition below the highest tested concentration are represented as “-” in the tables below. In some instances, the compounds were not tested in all of the assays, or assay results were not valid, as indicated by NA in the tables below.

Sequence of CYP2C9 (P11712 whole entry): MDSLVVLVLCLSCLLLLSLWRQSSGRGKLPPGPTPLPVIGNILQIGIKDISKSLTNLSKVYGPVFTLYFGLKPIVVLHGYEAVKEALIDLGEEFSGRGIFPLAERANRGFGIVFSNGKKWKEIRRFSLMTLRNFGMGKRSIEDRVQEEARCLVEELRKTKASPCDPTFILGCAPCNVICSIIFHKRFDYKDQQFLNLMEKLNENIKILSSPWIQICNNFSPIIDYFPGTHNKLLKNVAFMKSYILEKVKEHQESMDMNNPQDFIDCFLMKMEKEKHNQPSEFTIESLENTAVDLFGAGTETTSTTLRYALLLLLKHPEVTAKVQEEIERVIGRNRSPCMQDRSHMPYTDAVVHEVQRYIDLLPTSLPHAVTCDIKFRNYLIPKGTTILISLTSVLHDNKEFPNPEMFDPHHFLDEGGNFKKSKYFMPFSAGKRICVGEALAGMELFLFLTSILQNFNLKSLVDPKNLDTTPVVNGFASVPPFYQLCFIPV

| SMILES | IC50 [1] [µM] | IC50 [2] [µM] |
| --- | --- | --- |
| CCCNc1ncnc2[nH]cc(C(=O)c3ccc(Nc4ccc(OC)nc4)nc3F)c12 [Compound P-4068, [2-fluoro-6-[(6-methoxy-3-pyridyl)amino]-3-pyridyl]-[4-(propylamino)-7H-pyrrolo[2,3-d]pyrimidin-5-yl]methanone] | > 10 | < 0.01 |
| COc1ccc(Nc2ccc(C(=O)c3c[nH]c4ncnc(N5CCOCC5)c34)c(F)n2)cn1 [Compound P-4070, [2-fluoro-6-[(6-methoxy-3-pyridyl)amino]-3-pyridyl]-(4-morpholino-7H-pyrrolo[2,3-d]pyrimidin-5-yl)methanone] | > 10 | > 1 |
| COc1ccc(Nc2ccc(C(=O)c3c[nH]c4ncnc(NCc5ccc(C(F)(F)F)nc5)c34)c(F)n2)cn1 [Compound P-4071, [2-fluoro-6-[(6-methoxy-3-pyridyl)amino]-3-pyridyl]-[4-[[6-(trifluoromethyl)-3-pyridyl]methylamino]-7H-pyrrolo[2,3-d]pyrimidin-5-yl]methanone] | > 10 | < 0.1 |
| COc1ccc(Nc2ccc(C(=O)c3c[nH]c4ncnc(NCC5CCCO5)c34)c(F)n2)cn1 (centres unmarked) [Compound P-4073, [2-fluoro-6-[(6-methoxy-3-pyridyl)amino]-3-pyridyl]-[4-(tetrahydrofuran-2-ylmethylamino)-7H-pyrrolo[2,3-d]pyrimidin-5-yl]methanone] | > 10 | < 0.01 |
| COc1ccc(Nc2ccc(C(=O)c3c[nH]c4ncnc(NC5CCCC5)c34)c(F)n2)cn1 [Compound P-4075, [4-(cyclopentylamino)-7H-pyrrolo[2,3-d]pyrimidin-5-yl]-[2-fluoro-6-[(6-methoxy-3-pyridyl)amino]-3-pyridyl]methanone] | > 10 | < 0.01 |
| CCC(CC)Nc1ncnc2[nH]cc(C(=O)c3ccc(Nc4ccc(OC)nc4)nc3F)c12 [Compound P-4077, [4-(1-ethylpropylamino)-7H-pyrrolo[2,3-d]pyrimidin-5-yl]-[2-fluoro-6-[(6-methoxy-3-pyridyl)amino]-3-pyridyl]methanone] | > 10 | < 0.01 |
| CCCCNc1ncnc2[nH]cc(C(=O)c3ccc(Nc4ccc(OC)nc4)nc3F)c12 [Compound P-4080, [4-(butylamino)-7H-pyrrolo[2,3-d]pyrimidin-5-yl]-[2-fluoro-6-[(6-methoxy-3-pyridyl)amino]-3-pyridyl]methanone] | > 10 | < 0.01 |
| CCNc1ncnc2[nH]cc(C(=O)c3ccc(Nc4ccc(OC)nc4)nc3F)c12 [Compound P-4081, [4-(ethylamino)-7H-pyrrolo[2,3-d]pyrimidin-5-yl]-[2-fluoro-6-[(6-methoxy-3-pyridyl)amino]-3-pyridyl]methanone] | > 10 | < 0.01 |

More lines, now with the values ahead:

| IC50 [1] [µM] | IC50 [2] [µM] | SMILES |
| --- | --- | --- |
| > 10 | < 0.01 | COc1ccc(Nc2ccc(C(=O)c3c[nH]c4ncnc(NC(C)C)c34)c(F)n2)cn1 [Compound P-4066, [2-fluoro-6-[(6-methoxy-3-pyridyl)amino]-3-pyridyl]-[4-(isopropylamino)-7H-pyrrolo[2,3-d]pyrimidin-5-yl]methanone] |
| > 10 | < 0.01 | COc1ccc(Nc2ccc(C(=O)c3c[nH]c4ncnc(NCC5CC5)c34)c(F)n2)cn1 [Compound P-4067, [4-(cyclopropylmethylamino)-7H-pyrrolo[2,3-d]pyrimidin-5-yl]-[2-fluoro-6-[(6-methoxy-3-pyridyl)amino]-3-pyridyl]methanone] |
| > 10 | > 1 | COc1ccc(Nc2ccc(C(=O)c3c[nH]c4ncnc(N5CCCCC5)c34)c(F)n2)cn1 [Compound P-4069, [2-fluoro-6-[(6-methoxy-3-pyridyl)amino]-3-pyridyl]-[4-(1-piperidyl)-7H-pyrrolo[2,3-d]pyrimidin-5-yl]methanone] |
| 5 to 10 | < 0.01 | COc1ccc(Nc2ccc(C(=O)c3c[nH]c4ncnc(N[C@@H](C)c5ccc(F)cc5)c34)c(F)n2)cn1 [Compound P-4072, [2-fluoro-6-[(6-methoxy-3-pyridyl)amino]-3-pyridyl]-[4-[[(1S)-1-(4-fluorophenyl)ethyl]amino]-7H-pyrrolo[2,3-d]pyrimidin-5-yl]methanone] |
| > 10 | < 0.1 | CCN1CCC(Nc2ncnc3[nH]cc(C(=O)c4ccc(Nc5ccc(OC)nc5)nc4F)c23)CC1 [Compound P-4074, [4-[(1-ethyl-4-piperidyl)amino]-7H-pyrrolo[2,3-d]pyrimidin-5-yl]-[2-fluoro-6-[(6-methoxy-3-pyridyl)amino]-3-pyridyl]methanone] |
| > 10 | < 0.01 | COc1ccc(Nc2ccc(C(=O)c3c[nH]c4ncnc(NC5CCC5)c34)c(F)n2)cn1 [Compound P-4076, [4-(cyclobutylamino)-7H-pyrrolo[2,3-d]pyrimidin-5-yl]-[2-fluoro-6-[(6-methoxy-3-pyridyl)amino]-3-pyridyl]methanone] |
| > 10 | < 0.01 | CCC(C)Nc1ncnc2[nH]cc(C(=O)c3ccc(Nc4ccc(OC)nc4)nc3F)c12 (centres unmarked) [Compound P-4078, [2-fluoro-6-[(6-methoxy-3-pyridyl)amino]-3-pyridyl]-[4-(sec-butylamino)-7H-pyrrolo[2,3-d]pyrimidin-5-yl]methanone] |
| > 10 | < 0.01 | COCCCNc1ncnc2[nH]cc(C(=O)c3ccc(Nc4ccc(OC)nc4)nc3F)c12 [Compound P-4079, [2-fluoro-6-[(6-methoxy-3-pyridyl)amino]-3-pyridyl]-[4-(3-methoxypropylamino)-7H-pyrrolo[2,3-d]pyrimidin-5-yl]methanone] |
| > 10 | < 0.01 | COc1ccc(Nc2ccc(C(=O)c3c[nH]c4ncnc(NC5CCCCC5)c34)c(F)n2)cn1 [Compound P-4082, [4-(cyclohexylamino)-7H-pyrrolo[2,3-d]pyrimidin-5-yl]-[2-fluoro-6-[(6-methoxy-3-pyridyl)amino]-3-pyridyl]methanone] |
| > 10 | < 0.01 | CNc1ncnc2[nH]cc(C(=O)c3ccc(Nc4ccc(OC)nc4)nc3F)c12 [Compound P-4083, [2-fluoro-6-[(6-methoxy-3-pyridyl)amino]-3-pyridyl]-[4-(methylamino)-7H-pyrrolo[2,3-d]pyrimidin-5-yl]methanone] |
| > 10 | < 0.01 | COc1ccc(Nc2ccc(C(=O)c3c[nH]c4ncnc(NCC(F)(F)F)c34)c(F)n2)cn1 [Compound P-4084, [2-fluoro-6-[(6-methoxy-3-pyridyl)amino]-3-pyridyl]-[4-(2,2,2-trifluoroethylamino)-7H-pyrrolo[2,3-d]pyrimidin-5-yl]methanone] |
